According to paper PMC12380226, “Novel strategies for inhibiting SufA protease: the role of ester substituents and biological properties” (Future Medicinal Chemistry, 2025):
Where two headings read alike, the source gives them in different places. Each block holds one compound with its values, some of them ahead of it.

How the values were obtained:
SplA protease = tested on: SplA protease; set-up: method as in PMID 24375505; settings: cited from earlier work
S. marcescens PCM 549 = assay: Antibacterial activity, growth reduction (OD600, 24 h); assay type: cell-based; settings: Serratia marcescens, read-out: IC50 growth reduction
Method: (§1) The antibacterial properties of the inhibitors were assessed in Mueller-Hinton (MH) broth at 37°C for E. coli, S. marcescens, and S. aureus. For F. magna, the antibacterial properties of the inhibitors were tested in Todd Hewitt broth at 37°C under anaerobic conditions. An overnight culture of the tested bacteria was diluted 200-fold in fresh medium and incubated at 37°C until the OD600 reached 0.3. Subsequently, 100 µL of the inhibitor and antibiotic control (at concentrations ranging from 0 to 250 µg/mL) were added to 900 µL of bacterial culture, which had been previously diluted to an OD600 of less than 0.01. The resulting samples were incubated for 24 h at 37°C with shaking at 100 rpm. Then, 200 µL of each sample was transferred to a well plate, and the absorbance was measured at a wavelength of 600 nm using a microplate reader. To determine the antibacterial properties of the inhibitors, the data were normalized against a control culture (without inhibitor or antibiotics). The IC50 values were calculated using GraphPad Prism through nonlinear regression, employing the following equation model: Y=YBottom+(YTop−YBottom)/(1+10^∧((LogIC50−X)∗(−1.0))),
(§2) where YBottom and YTop represent the plateaued units of the Y-axis. The IC50 value represents the concentration that produces a half-maximal response between YBottom and YTop, thus measuring the potency of a compound in inhibiting bacterial viability and indicating a 50% reduction in bacterial growth. The effect of gentamicin on bacterial growth reduction, including its IC50 values, can be found in the Supplementary Material (Supplementary Microbiology Part S1, Figures S12)

SufA protease [1] = assay: Inhibition of SufA-mediated degradation of human fibrinogen (SDS-PAGE); assay type: biochemical, Finegoldia magna; settings: SufA 25 µg/mL, inhibitor 1.3 mM, pre-incubation 60 min 37°C, SDS-PAGE reducing
Method: (§3) The SufA protease was incubated with the specific SufA inhibitor for 60 min at 37°C, maintaining a constant DMSO concentration of 1%. The reference sample contained an appropriate amount of DMSO instead of the inhibitor. After incubation, fibrinogen and LL-37 proteins were added to each sample of enzyme (25 µg/mL) or enzyme with inhibitor (25 µg/mL, 1.3 mM). Samples were analyzed by PAGE using the standard Laemmli protocol for fibrinogen and the procedure developed by Judd for the LL-37 peptide. Raw gel results of the inhibition of SufA-induced degradation of human fibrinogen and LL-37 by tested inhibitors after SDS-PAGE electrophoresis analysis are presented in Supplementary Biochemical Part S1-S2 and Figures S9–S11.

E. coli PCM 2561 = assay: Antibacterial activity, growth reduction (OD600, 24 h); assay type: cell-based; settings: Escherichia coli, PCM2561, MH broth
Method: as §1, §2

F. magna PCM 2822 = assay: as above; assay type: cell-based; settings: Finegoldia magna, read-out: IC50 growth reduction
Method: as §1, §2

S. aureus PCM 2602 = assay: as above; assay type: cell-based; settings: Staphylococcus aureus, PCM2602, MH broth
Method: as §1, §2

E. coli = settings: read-out: literature IC50; cited from earlier work
S. aureus = settings: read-out: literature IC50; cited from earlier work
SufA [2] = tested on: SufA; set-up: method as in PMID 24859537; settings: cited from earlier work
BALB/3T3 = tested on: BALB/3T3; set-up: method as in PMID 24859537; settings: BALB/3T3 cell line; cited from earlier work
SufA [3] = tested on: SufA; set-up: method as in PMID 24859537; settings: cited from earlier work; remark: listed apart in the source
HLMEC = tested on: HLMEC; set-up: method as in PMID 24859537; settings: HLMEC cell line; cited from earlier work
SufA protease [4] = assay: SufA inhibition studies (fluorogenic substrate ABZ-Ile-Ser-Lys-ANB, progress curve method); assay type: biochemical, Finegoldia magna
Method: The assays were performed at 37°C with an excitation wavelength of 320 nm for ABZ and an emission wavelength of 410 nm using 96-well microtiter plates (COSTAR, Corning Inc., Gdańsk, Poland) in 0.1 M Tris-HCl (pH 8.0) with 0.01 M KCl. The concentrations of substrate (ABZ-Ile-Ser-Lys-ANB) and SufA protease were 25 µM and 4 µg/mL, respectively. The SufA protease was incubated for 10 min with the tested compound, dissolved in DMSO (inhibitor final concentration ranging from 0 to 300 µM), and then the measurement was taken for 10 min. Each assay was performed in at least duplicate. The inhibitory activity was measured, and the percentage of inhibition was calculated with the equation: % inhibition = RFUtest / RFU− ∗ 100%,
where RFU represents the relative fluorescence units, test refers to the signal from reactions containing an inhibitor, and (-) represents the signal from the control reactions (without an inhibitor). The inhibitory effects of the synthesized compounds were evaluated by means of the progress curve method.
where [P] is the product concentration at time t, vi is the initial velocity, and vs is the steady state velocity. […]

SufA protease [5] = assay: Inhibition of SufA-mediated degradation of human antimicrobial peptide LL-37 (PAGE); assay type: biochemical, Finegoldia magna; settings: SufA 25 µg/mL, inhibitor 1.3 mM, pre-incubation 60 min 37°C
Method: as §3

ctDNA = assay: DNA intercalation by circular dichroism spectroscopy; assay type: binding, ox; settings: inhibitor 100 µM, ctDNA 50 µM, 1% DMSO
Method: The measurement parameters were set as follows: the wavelength range was set from 220 nm to 320 nm, step – at every 0.2 nm, and 4 accumulations. Measurements were performed in a Justcode M cuvette with an optical path of 1 mm. 200 μL of the analyzed solution was introduced into the cuvette each time. The apparatus was zeroed using phosphate buffer with the following composition: 150 mM NaCl, 20 mM PB, 1 mM EDTA. Afterward, the samples (maintaining a constant DMSO concentration of 1%) of ctDNA (50 µM), inhibitor (100 µM), and inhibitor (100 µM) with ctDNA (50 µM) were prepared. First, a sample of the ctDNA solution was measured with a CD spectrometer to check the graph for pure DNA. Then, a sample of the inhibitor solution was measured, against which the apparatus was blanked because the inhibitor molecule itself could produce a CD effect, potentially falsifying the results. At the end, a sample of the actual solution containing the inhibitor and ctDNA was measured.

Structure (SMILES): CC(C)CC(NC(=O)C1CCCN1C(=O)C(NC(=O)OCc1ccccc1)C(C)C)P(=O)(Oc1ccc(S(C)(=O)=O)cc1)Oc1ccc(S(C)(=O)=O)cc1 (stereo not drawn) [Cbz-Val-Pro-Leu^P(OC6H4-4-SOOCH3)2]
- k2/Ki (SplA protease): > 8000 M⁻¹ s⁻¹

- IC50 (S. marcescens PCM 549; PCM549, MH broth, 24 h): 251 nM
Structure (SMILES): CNC(C)C1CCC(N)C(OC2C(N)CC(N)C(OC3OCC(C)(O)C(NC)C3O)C2O)O1 (stereo not drawn) [gentamicin, reference compound]

Structure (SMILES): COc1ccc(OP(=O)(Oc2ccc(OC)cc2)C(NC(=O)OCc2ccccc2)c2ccc3cc(C(=N)N)ccc3c2)cc1 (stereo not drawn) [Compound 8b, Cbz-6-AmNphth^P(OC6H4-4-OCH3)2]
- Inhibition of SufA-induced degradation of human fibrinogen (SufA protease [1]): weaker inhibitory effect on fibrinogen degradation
- IC50 (E. coli PCM 2561): > 150000 nM
- IC50 (F. magna PCM 2822; PCM2822, 24 h): 40 nM
- IC50 (S. aureus PCM 2602): 19200 nM
- IC50 (S. marcescens PCM 549; PCM549, 24 h): 480 nM

Structure (SMILES): CC(C)C(NC(=O)OCc1ccccc1)C(=O)N1CCCC1C(=O)NC(Cc1ccccc1)P(=O)(Oc1ccc(S(C)(=O)=O)cc1)Oc1ccc(S(C)(=O)=O)cc1 (stereo not drawn) [Cbz-Val-Pro-Phe^P(OC6H4-4-SOOCH3)2]
- k2/Ki (SplA protease): > 8000 M⁻¹ s⁻¹

Structure (SMILES): CC1(C)S[C@@H]2[C@H](NC(=O)[C@H](N)c3ccccc3)C(=O)N2[C@H]1C(=O)O [ampicillin]
- IC50 (E. coli): 10100 nM
- IC50 (S. aureus): 180 nM

Structure (SMILES): O=C(N[C@H](CO)[C@H](O)c1ccc([N+](=O)[O-])cc1)C(Cl)Cl [chloramphenicol]
- IC50 (E. coli): 373000 nM
- IC50 (S. aureus): 1590 nM

Structure (SMILES): N=C(N)c1ccc2cc(C(NC(=O)OCc3ccccc3)P(=O)(Oc3ccccc3)Oc3ccccc3)ccc2c1 (stereo not drawn) [Cbz-6-AmNpth^P(OC6H5)2]
- Inhibition of degradation of fibrinogen (SufA [2]): completely inhibited the degradation of fibrinogen
- Cytotoxicity (BALB/3T3): no significant cytotoxicity
- k2/Ki (SufA [3]): 10,800 M^− 1 s^− 1
- Cytotoxicity (HLMEC): no significant cytotoxicity

Structure (SMILES): COC(=O)c1ccc(OP(=O)(Oc2ccc(C(=O)OC)cc2)C(NC(=O)OCc2ccccc2)c2ccc3cc(C(=N)N)ccc3c2)cc1 (stereo not drawn) [Compound 8c, Cbz-6-AmNphth^P(OC6H4-4-COOCH3)2]
- Inhibition of SufA-induced degradation of human fibrinogen (SufA protease [1]): weaker inhibitory effect on fibrinogen degradation
- IC50 (E. coli PCM 2561): 60900 nM
- IC50 (F. magna PCM 2822; PCM2822, 24 h): 6980 nM
- IC50 (S. aureus PCM 2602): > 150000 nM
- IC50 (S. marcescens PCM 549; PCM549, 24 h): < 10 nM
- % SufA inhibition (SufA protease [4]; cmpd. conc. 50 μM): < 50%

Structure (SMILES): CSc1ccc(OP(=O)(Oc2ccc(SC)cc2)C(NC(=O)OCc2ccccc2)c2ccc3cc(C(=N)N)ccc3c2)cc1 (stereo not drawn) [Compound 8a, Cbz-6-AmNphth^P(OC6H4-4-SCH3)2]
- Inhibition of SufA-induced degradation of human fibrinogen (SufA protease [1]): completely prevented fibrinogen degradation
- IC50 (E. coli PCM 2561): 28200 nM
- IC50 (F. magna PCM 2822; PCM2822, Todd Hewitt broth, anaerobic, 24 h): 20 nM
- IC50 (S. aureus PCM 2602): 2650 nM
- IC50 (S. marcescens PCM 549; PCM549, 24 h): 20 nM
- k2/Ki (SufA protease [4]; second-order rate constant, 37°C, pH 8.0): 1500 M⁻¹ s⁻¹
- Inhibition of SufA-induced degradation of LL-37 (SufA protease [5]): inhibition of LL-37 cleavage
- DNA intercalation (change of CD spectrum of ctDNA) (ctDNA): does not induce DNA intercalation
